One data set concerns the target CDK4/CycD3 (Homo sapiens, UniProt P11802). The experiment in a line: CDK4 kinase activity inhibition, Caliper mobility shift assay. In kind it is biochemical. The protocol:
(§1) CDK2/CycA2, CDK4/CycD3 and CDK6/cycD3 protein kinase activities were determined using the Caliper mobility shift assay. The compound was dissolved in DMSO and diluted with kinase buffer (CDK2/CycA2 and CDK6/cycD3 with 50 mM HEPES (pH 7.5), 10 mM MgCl2, 0.0015% Brij-35, and 2 mM dithiothreitol; CDK4/CycD3 with 20 mM HEPES (pH 7.5), 10 mM MgCl2, 0.01% Triton X-100, and 2 mM dithiothreitol), 5 μl of a 5-fold final concentration of the compound (10% DMSO) was added to a 384-well plate. Add 10 μL of 2.5-fold […] enzyme solution and incubate for 10 minutes at room temperature, then add 10 μL of 2.5-fold substrate solution (corresponding enzyme and substrate concentration CDK2/CycA2 12 nM, ATP Kin 39 μM; CDK4/CycD3 10 nM, ATP Km 221 μM; CDK6/cycD3 15 nM, ATP Km […]) Incubate at 28° C. (60 min CDK2, 180 min CDK4, 60 min CDK6) followed by 25 μl stop solution (100 mM HEPES (pH 7.5), 0.015% Brij-35, 0.2% Coating Reagent #3, 50 mM EDTA) Stop the reaction. Conversion rate data was read on a Caliper EZ Reader 11 (Caliper Life Sciences). The conversion rate was converted into inhibition rate data (% inhibition rate=(max−conversion rate)/(max−min)*100) Where max is the conversion of the DMSO control and min is the conversion of the enzyme-free control. Curves were plotted with compound concentration and inhibition rate on the horizontal and vertical coordinates, and the curve was fitted using XLFit excel add-in version 4.3.1 software and IC50 was calculated.

In the next data set the target is CDK6/cycD3 (Homo sapiens, UniProt Q00534). The experiment in a line: CDK6 kinase activity inhibition, Caliper mobility shift assay. In kind it is biochemical. The protocol:
as §1

A further data set deals with CDK2/CycA2 (Homo sapiens, UniProt P24941). The experiment in a line: CDK2 kinase activity inhibition, Caliper mobility shift assay. The format is biochemical. The protocol: as §1
For the next data set, the target named is Jak1 (Homo sapiens, UniProt P23458). Nature of the data set: Jak1 kinase activity inhibition, Caliper Reader. In kind it is biochemical. The protocol: (§2) Kinase JAk1 and Jak2 enzyme inhibition IC50 evaluation experiments: The buffer was configured with the following components: 50 mM HEPES, pH 7.5, 0.00015% Brij-35. Compounds were placed in a concentration gradient in 100% DMSO and diluted to 10% DMSO with buffer and added to 384 well plates. For example, when the initial concentration of the compound is […], it is made into 12.5 μM with 100% DMSO, and diluted by 5 or 6 concentrations, and then diluted 10-fold with buffer to prepare an intermediate dilution of the compound containing 10% DMSO. Transfer 5 μL, to 384-well plate. The Jak1 and Jak2 enzymes were diluted to the optimal concentration with the following buffer: 50 mM HEPES, pH 7.5, 0.00015% Brij-35, 2 mM DTT. Transfer 10 μL to a 384-well plate and incubate with the compound for 10-15 minutes. The substrate was diluted to the optimal concentration with the following buffer: 50 mM HEPES, pH 7.5, 0.00015% Brij-35, 10 mM MgCl2, adenosine triphosphate at Km. The reaction was initiated by adding 10 μL to a 384-well plate and reacted at 28° C. for 1 hour. The conversion rate was then read using a Caliper Reader and the inhibition rate was calculated. The formula is as follows: Percent inhibition=(max−conversion)/(max−min)*100. Where max is the conversion of the DMSO control and min is the conversion of the enzyme-free control. Fit the IC50 value with XLFit excel add-in version 5.4.0.8. Fitting formula: Y=Bottom+(Top−Bottom)/(1+(IC50/X)^HillSlope).
Chain of Jak1 (P23458 whole entry, species assumed): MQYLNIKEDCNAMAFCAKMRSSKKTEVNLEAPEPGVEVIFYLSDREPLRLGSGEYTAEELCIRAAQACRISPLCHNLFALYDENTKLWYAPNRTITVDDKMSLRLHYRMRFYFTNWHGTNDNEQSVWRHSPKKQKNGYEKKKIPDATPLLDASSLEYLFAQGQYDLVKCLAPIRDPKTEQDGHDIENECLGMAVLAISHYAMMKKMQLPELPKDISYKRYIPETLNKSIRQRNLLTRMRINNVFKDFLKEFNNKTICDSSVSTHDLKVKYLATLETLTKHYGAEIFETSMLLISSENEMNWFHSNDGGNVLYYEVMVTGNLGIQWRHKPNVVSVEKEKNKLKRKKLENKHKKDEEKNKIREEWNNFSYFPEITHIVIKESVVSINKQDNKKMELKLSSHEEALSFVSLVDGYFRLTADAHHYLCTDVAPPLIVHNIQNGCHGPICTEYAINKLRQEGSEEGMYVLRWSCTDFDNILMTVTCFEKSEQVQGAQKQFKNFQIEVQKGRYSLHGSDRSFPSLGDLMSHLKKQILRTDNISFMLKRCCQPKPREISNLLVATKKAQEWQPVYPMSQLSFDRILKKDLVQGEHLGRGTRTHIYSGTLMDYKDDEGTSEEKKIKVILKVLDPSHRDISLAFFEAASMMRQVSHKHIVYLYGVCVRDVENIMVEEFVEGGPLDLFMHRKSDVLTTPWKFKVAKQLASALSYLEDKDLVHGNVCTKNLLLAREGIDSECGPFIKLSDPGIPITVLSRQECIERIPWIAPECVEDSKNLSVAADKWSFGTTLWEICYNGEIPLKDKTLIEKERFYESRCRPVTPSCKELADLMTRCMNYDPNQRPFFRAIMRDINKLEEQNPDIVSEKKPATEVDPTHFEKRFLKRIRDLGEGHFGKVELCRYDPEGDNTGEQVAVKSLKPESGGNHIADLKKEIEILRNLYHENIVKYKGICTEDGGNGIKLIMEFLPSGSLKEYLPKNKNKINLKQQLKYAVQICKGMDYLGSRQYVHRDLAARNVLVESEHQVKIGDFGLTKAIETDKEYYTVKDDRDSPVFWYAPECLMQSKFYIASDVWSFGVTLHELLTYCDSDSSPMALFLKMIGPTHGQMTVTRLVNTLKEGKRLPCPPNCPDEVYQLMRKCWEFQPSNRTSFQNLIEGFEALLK

In a further data set the target is Jak2 (Homo sapiens, UniProt O60674). The experiment in a line: Jak2 kinase activity inhibition, Caliper Reader. The format is biochemical. The protocol:
as §2

The target in a further data set is SYK (Homo sapiens, UniProt P43405). Nature of the data set: Syk kinase activity inhibition, Caliper mobility shift assay. In kind it is biochemical. The protocol:
SYK protein kinase activity was determined using the Caliper mobility shift assay. The compound was dissolved in DMSO and diluted with kinase buffer (20 mM HEPES, 0.01% Triton X-100, 5 mM MgCl2, 1 mM MnCl2, 2 mM DTT), and 5 μL of 5 times final concentration was added to the 384-well plate Compound (10% DMSO). After adding 10 μL of 2.5-fold enzyme (with SYK) solution, incubate for 10 minutes at room temperature, and then add 10 μL of 2.5-fold substrate (Peptide FAM-P22 and ATP) solution. Incubate at 28° C. for 30 minutes, then stop the reaction by adding 25 μL of stop solution (100 mM HEPES, 0.015% Brij-35, 0.2% Coating Reagent #13, 50 mM EDTA, pH 7.5). Conversion rate data was read on a Caliper EZ Reader II (Caliper Life Sciences) The conversion rate was converted into inhibition rate data (% inhibition rate=(max−conversion rate)/(max−min)*100). Where max is the conversion of the DMSO control and min is the conversion of the enzyme-free control. Curves were plotted with compound concentration and inhibition rate on the horizontal and vertical coordinates, and the curve was fitted using XLFit excel add-in version 4.3.1 software and IC50 was calculated.

Data set [1] can be described thus: Pharmacokinetic study in mice, intragastric administration. The format is in vivo. The following applies: mouse, male ICR mice, PO dose 5 mg/kg, plasma; for AUC(0-t): read-out: AUC(0-24). The protocol: Instrument: API4000+LC/MS instrument manufactured by AB Sciex. All measurement data was collected and processed by Analyst 1.6.3 software, and data was calculated and processed by Microsoft Excel. Using the DAS 3.2.8 software, the statistical moment method was used to calculate the pharmacokinetic parameters. t mainly includes kinetic parameters Tmax, T½, Cmax, AUC(0-t) and the like Column: ACQUITY UPLC BEH C18 (2.1 mm×50 mm, 1.7 μm), column temperature 40° C.; mobile phase A is water (0.1% formic acid+5 mM ammonium acetate), mobile phase B is acetonitrile (0.1% acetic acid). The flow rate was 0.30 ml/min and the isocratic elution of 90% B was maintained for 1.5 minutes. Injection volume: 5 μL.
Animals: 12 male ICR mice, weighing 22-26 g, were used after 2 days of feeding in the laboratory of the experimental animal center. They were fasted 12 hours before the administration and 4 hours after the administration, and were free to drink during the test. Mice were randomly divided into four groups of 3 animals each. After intragastric administration, blood samples were taken at two different time points in each group.
Solvent: 0.5% Methylcellulose (aqueous solution containing 0.4% Tween 80). Formulation of intragastric administration solution. The compound is accurately weighed, added to the solvent, and sonicated at room temperature for 5 minutes to completely dissolve the drug to prepare a drug solution of 0.33 mg/ml.
Drug sample: A representative compound of the structure represented by the patent formula (I) of the present invention generally adopts a plurality of samples having similar structures (molecular weight difference of more than 2 units), accurately weighed, and administered together (cassette PK). This allows multiple compounds to be screened simultaneously and their oral absorption rates compared. Single drug administration was also used to study the pharmacokinetics of drug samples in mice.
Blood was taken from the eyelids at 0.25, 0.5, 1, 2, 4, 8, 12, and 24 hours after intragastric administration. In the heparin-treated tube, the supernatant was centrifuged for LC-MS/MS analysis.
Accurately weigh the compounds to different concentrations, perform quantitative analysis on the mass spectrometer to establish a standard curve, and then test the concentration of the compound in the above plasma to obtain the concentration of the compound at different time points. All the measured data were collected and processed by the relevant software, and the statistical moment method was used to calculate the pharmacokinetic parameters (mainly including the kinetic parameters Tmax, T1/2, Cmax, AUC(0-t), etc.).

pIC50: −log10 of the molar value.

In general, pIC50 refers to −log10 of the IC50, conventionally taken in molar units. As a reminder, the Cmax is the peak of the concentration-time curve. Usually Tmax stands for the time at which the peak concentration occurs. In general, half-life refers to the time needed for the level to fall by half in the phase considered.

Chain of CDK4/CycD3 (P11802 whole entry, species assumed): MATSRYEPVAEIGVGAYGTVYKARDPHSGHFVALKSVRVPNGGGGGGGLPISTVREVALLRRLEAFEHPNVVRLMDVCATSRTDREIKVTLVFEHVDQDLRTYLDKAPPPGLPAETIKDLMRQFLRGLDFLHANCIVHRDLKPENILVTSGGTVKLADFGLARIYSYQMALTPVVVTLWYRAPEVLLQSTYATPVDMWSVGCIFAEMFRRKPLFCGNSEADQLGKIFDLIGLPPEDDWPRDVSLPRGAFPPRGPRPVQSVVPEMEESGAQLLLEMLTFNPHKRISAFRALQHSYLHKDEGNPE
Chain of CDK4/CycD3 (P30281 whole entry partner, species assumed): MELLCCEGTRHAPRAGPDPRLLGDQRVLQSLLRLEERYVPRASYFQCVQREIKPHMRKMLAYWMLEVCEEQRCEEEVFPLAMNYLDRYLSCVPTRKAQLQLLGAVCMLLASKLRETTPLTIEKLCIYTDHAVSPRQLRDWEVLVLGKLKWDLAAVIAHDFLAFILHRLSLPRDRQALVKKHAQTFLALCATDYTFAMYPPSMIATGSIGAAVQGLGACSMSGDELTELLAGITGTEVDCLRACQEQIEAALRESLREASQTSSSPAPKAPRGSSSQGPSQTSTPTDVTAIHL
Chain of Jak2 (O60674 whole entry, species assumed): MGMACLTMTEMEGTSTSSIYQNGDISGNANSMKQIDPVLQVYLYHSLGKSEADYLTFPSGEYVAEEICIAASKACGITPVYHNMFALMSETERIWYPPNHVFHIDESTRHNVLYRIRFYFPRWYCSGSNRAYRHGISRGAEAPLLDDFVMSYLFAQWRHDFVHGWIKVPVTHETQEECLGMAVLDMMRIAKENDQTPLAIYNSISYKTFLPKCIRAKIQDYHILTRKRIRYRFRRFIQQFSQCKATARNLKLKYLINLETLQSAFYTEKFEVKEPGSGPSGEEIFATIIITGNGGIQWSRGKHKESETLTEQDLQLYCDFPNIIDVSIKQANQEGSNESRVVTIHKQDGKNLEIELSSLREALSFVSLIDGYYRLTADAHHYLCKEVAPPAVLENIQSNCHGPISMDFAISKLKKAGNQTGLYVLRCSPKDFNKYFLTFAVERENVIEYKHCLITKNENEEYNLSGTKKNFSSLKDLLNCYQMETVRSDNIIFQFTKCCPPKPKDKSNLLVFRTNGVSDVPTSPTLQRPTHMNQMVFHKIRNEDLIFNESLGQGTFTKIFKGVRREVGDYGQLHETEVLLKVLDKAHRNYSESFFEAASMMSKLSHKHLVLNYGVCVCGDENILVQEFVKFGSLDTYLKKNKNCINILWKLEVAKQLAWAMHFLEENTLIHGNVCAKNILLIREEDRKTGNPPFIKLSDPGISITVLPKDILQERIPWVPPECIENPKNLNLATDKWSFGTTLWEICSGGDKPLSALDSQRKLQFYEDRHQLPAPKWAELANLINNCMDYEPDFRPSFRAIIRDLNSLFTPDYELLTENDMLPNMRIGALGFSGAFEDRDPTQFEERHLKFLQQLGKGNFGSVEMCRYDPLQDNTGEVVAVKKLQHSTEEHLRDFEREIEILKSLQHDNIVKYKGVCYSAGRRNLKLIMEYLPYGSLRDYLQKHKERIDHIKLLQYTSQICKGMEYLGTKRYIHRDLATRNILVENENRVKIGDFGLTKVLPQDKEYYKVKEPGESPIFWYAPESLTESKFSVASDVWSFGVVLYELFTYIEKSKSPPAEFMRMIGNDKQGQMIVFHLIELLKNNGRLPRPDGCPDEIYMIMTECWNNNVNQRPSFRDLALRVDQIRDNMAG
Chain of CDK6/cycD3 (Q00534 whole entry, species assumed): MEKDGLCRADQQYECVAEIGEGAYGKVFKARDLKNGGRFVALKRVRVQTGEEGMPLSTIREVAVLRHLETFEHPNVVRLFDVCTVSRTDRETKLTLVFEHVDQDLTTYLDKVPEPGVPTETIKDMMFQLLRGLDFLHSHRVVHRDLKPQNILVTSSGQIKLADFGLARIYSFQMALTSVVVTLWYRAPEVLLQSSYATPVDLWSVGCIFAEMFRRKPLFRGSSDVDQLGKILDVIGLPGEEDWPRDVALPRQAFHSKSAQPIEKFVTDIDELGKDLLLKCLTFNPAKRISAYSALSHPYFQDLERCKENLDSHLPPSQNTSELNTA
Chain of CDK6/cycD3 (P30281 whole entry partner, species assumed): as the sequence (P30281 whole entry partner, species assumed) above

Consider `Cc1nc2c(F)cc(-c3nc(Nc4ccc5c(c4)OC[C@@H]4CN(C)CCN54)ncc3F)cc2n1C(C)C` [Compound B1S], for which the results for the pIC50 on CDK4/CycD3, at CDK6/cycD3 and at CDK2/CycA2 were greater than 8.00, greater than 7.30 and greater than 8.00, respectively.
As for `CN1CCC(N2CCN3c4ccc(Nc5ncc(C(N)=O)c(NC6CC6)n5)cc4OC[C@H]3C2)CC1` [Compound C2R], the figures for the pIC50 on Jak1, against Jak2 and on SYK were greater than 6.30, greater than 7.70 and greater than 7.30, respectively.
As to `CN1CCN2c3ccc(Nc4ncc(C(N)=O)c(NC5CC5)n4)cc3OC[C@H]2C1` [Compound C5R], the negative logarithm of the IC50 (pIC50) against Jak1 is greater than 7.00; on Jak2 it was greater than 8.00; on SYK, greater than 7.30.
With `NC(=O)c1cnc(Nc2ccc3c(c2)OC[C@H]2CN(C(=O)C(F)(F)F)CCN32)nc1NC1CC1` [Compound C6R], the negative-log IC50 (pIC50) was greater than 6.30 at Jak1, greater than 7.30 against Jak2 and greater than 7.30 on SYK.
Consider `Cc1nc2c(F)cc(-c3nc(Nc4ccc5c(c4)OC[C@H]4CN(C6CCN(C)CC6)CCN54)ncc3F)cc2n1C(C)C` [Compound B3R], for which the pIC50 at CDK4/CycD3, at CDK6/cycD3 and at CDK2/CycA2 was greater than 8.00 in each case.
As to `Cc1nc2c(F)cc(-c3nc(Nc4ccc5c(c4)OC[C@H]4CN(C)CCN54)ncc3F)cc2n1C(C)C` [Compound B1R], the pIC50 at CDK4/CycD3 was greater than 8.00; on CDK6/cycD3, greater than 7.30; at CDK2/CycA2, greater than 8.00.
For the molecule `CC(=O)N1CCN2c3ccc(Nc4ncc(C(N)=O)c(NC5CC5)n4)cc3OC[C@H]2C1` [Compound C3R], the negative logarithm of the IC50 (pIC50) on Jak1 was greater than 7.00; against Jak2 it was greater than 8.00; at SYK, greater than 7.30.
As to `Cc1nc2c(F)cc(-c3nc(Nc4ccc5c(c4)OC[C@H]4CN(C6CCOCC6)CCN54)ncc3F)cc2n1C(C)C` [Compound B2R], on CDK4/CycD3, the pIC50 is greater than 8.00. For the same molecule, in data set [1], the highest concentration (Cmax) came to 495 ng/mL, the time of peak concentration (Tmax) was determined as 60 min, the half-life is 343 min and the AUC(0-t) came out at 2200 ng·h/mL. The pIC50 at CDK6/cycD3 is greater than 7.30. In addition, the negative-log IC50 (pIC50) at CDK2/CycA2 is greater than 8.00.
Turning to `NC(=O)c1cnc(Nc2ccc3c(c2)OC[C@H]2CN(S(=O)(=O)C4CC4)CCN32)nc1NC1CC1` [Compound C10R], in data set [1], the Cmax came to 451 ng/mL, the time to peak (Tmax) came out at 30 min, the half-life is 145 min and the AUC(0-t) is 1240 ng·h/mL. The molecule also had a negative logarithm of the IC50 (pIC50) against Jak2 greater than 8.00. For the same molecule, the pIC50 at SYK was greater than 8.00.
Turning to `NC(=O)c1cnc(Nc2ccc3c(c2)OC[C@H]2CN(C4CCOCC4)CCN32)nc1NC1CC1` [Compound C4R], the figures for the negative logarithm of the IC50 (pIC50) on Jak1, at Jak2 and at SYK were greater than 6.30, greater than 7.70 and greater than 7.30, respectively.
`CCS(=O)(=O)N1CCN2c3ccc(Nc4ncc(C(N)=O)c(NC5CC5)n4)cc3OC[C@H]2C1` [Compound C1R]: the negative logarithm of the IC50 (pIC50) was greater than 7.00 at Jak1, greater than 8.00 at Jak2 and greater than 8.00 on SYK.

For the origin of these results see patent US10730887B2, “Compound containing tricyclic heteroaryl group” (Hangzhou Innogate Pharma Co., Ltd., priority 2016, dated 2020).
